# Measurements reported in US9261498B2, “Biomarker for sensitivity to mTOR inhibitor therapy in kidney cancer” (The Regents of the University of California, priority 2005, dated 2016).
# Tested on: VEGF
# Test: VEGF ELISA of conditioned media
# Format: cell-based, human
# Details: VHL knockdown cells, 10 nM CCI-779, 36 hours, normalized to total cellular protein
# Method: FIGS. 2A-2C. Effects of VHL knockdown on angiogenesis. (a) Microvessel density was quantified by CD-31 immunolabeling (arrows) in the xenograft tumors, and difference between CCI-779 treated (+) and vehicle (−) treated mice quantified (n=6 in each group). P<0.0033 for microvessel density counts in VHL shRNA compared to vector only (see blue bars). (b) Similar number of cells were plated and maintained in 10% serum rich media, in the presence (+) or absence (−) of 10 nM CCI-779. Thirty-six hours later, conditioned media was analyzed by anti-VEGF ELISA and cell extracts prepared for protein quantification. VEGF values were normalized to total cellular protein. Error bars equal one standard deviation (n=3). […] Bound antibody was detected using enhanced chemiluminescence (ECL, Amersham). For VEGF ELISA quantification, cells were plated in 6 well plates (1×10^5 per well). […] Thirty-six hours later, VEGF ELISA (R&D Systems) was performed according to the manufacturer's instructions, using a Fisher Plate reader. […] Bound antibody was detected using enhanced chemiluminescence (ECL, Amersham). For VEGF ELISA quantification, cells were plated in 6 well plates (1×10^5 per well). […] Thirty-six hours later, VEGF ELISA (R&D Systems) was performed according to the manufacturer's instructions, using a Fisher Plate reader. […]
compound,measurement,value
CO[C@H]1C[C@@H]2CC[C@@H](C)[C@@](O)(O2)C(=O)C(=O)N2CCCC[C@H]2C(=O)O[C@H]([C@H](C)C[C@@H]2CC[C@@H](OC(=O)C(C)(CO)CO)[C@H](OC)C2)CC(=O)[C@H](C)/C=C(\C)[C@@H](O)[C@@H](OC)C(=O)[C@H](C)C[C@H](C)/C=C/C=C/C=C/1C [CCI-779],reduction of secreted VEGF levels,2 fold
